Measurements published in US20090328239A1, “BLOOD VESSEL IMAGING AND USES THEREFOR” (Bio Tree Systems, Inc., priority 2006, published 2009).

Experiments:
[1] = tested on: human non-small cell lung tumor cell line (A549) xenotopic tumor; assay: Vascular cast micro-CT analysis of blood vessel diameter distribution in xenotopic tumor model; type: in vivo, mice (SCID); details: 0.5 mg/kg i.p., vascular casts
Protocol: (§1) A tumor model can be generated by inoculating human non-small cell lung tumor cell line (A549 from ATCC, Inc.) subcutaneously in immunodeficient mice (SCID). SCID male mice (6-8 weeks old from Charles River Inc.) are inoculated subcutaneously in the lower back with a suspension of 1×10^6 human lung tumor cells (A549) in 0.2 ml of PBS. All mice are fed normal chow diet throughout the duration of the experiment. All mice weights are measured throughout the experiment. Tumor size is measured with calipers twice-a-week and tumor volume is calculated using the formula Length^2×Width×0.52. All mice are randomized into two treatment groups (approximately 10 mice per group) when the median tumor volume reaches approximately 500 mm^3. The treatment groups can be treated according to the following schedule using intraperitoneal (i.p.) administration of either a control composition or an anti-angiogenic compound. For example, different levels of an anti-angiogenic compound can be used and the results compared to a control group that is not treated with an anti-angiogenic compound (e.g., Avastin® available from Genentech, South San Francisco, Calif.). For example:
At the end-point, all mice are anesthetized and systemically perfused with a casting agent.
Perfusion with a casting agent, Mercox (available from Ladd Research, Williston, Vt.) can be performed as follows. An initial anticoagulation step for each animal is performed using an i.v. injection of heparin (10,000 U/ml, 0.3 cc/mouse). After 30 minutes, the animals are anesthetized. Each animal's heart is cannulated and the animal perfused with warm physiological saline at physiological pressure (with an open vein draining the organ or with an open vena cava). Perfusion is continued until the organ or animal is clear of blood. Mercox monomer is filtered through a 0.5 μm filter and a casting resin is prepared by mixing 8 ml Mercox, 2 ml methylmethacrylate, and 0.3 ml catalyst. The resin is infused through the same cannula until the onset of polymerization (the resin changes color to brown and emits heat, ˜10 min). The organ or animal is carefully immersed in a 60° C. water bath for 2 hours (or overnight in a sealed container). […] The resulting cast can be analyzed to identify one or more structural characteristics of interest.
(§2) Xenotopic mouse models obtained as described in Example 2 were treated with either a control solution of saline/PBS or an anti-angiogenic preparation of Avastin® at 0.5 mg/kg/i.p. as described above. At the end-point, vascular casts were prepared as described in Example 3 above and analyzed for two treated mice (both treated with Avastin® at 0.5 mg/kg/i.p.) and one control mouse. […]

[2] = tested on: human non-small cell lung tumor cell line (A549) xenotopic tumor; assay: Tumor volume in xenotopic tumor model (caliper measurement); type: in vivo, mice (SCID); details: 0.5 mg/kg i.p. twice a week; end-point 1.5 weeks after initial treatment; vs saline/PBS control
Protocol: as §1, with “For example, different levels of an anti-angiogenic compound can be used and the results compared to a control group that is not treated with an anti-angiogenic compound (e.g., Avastin® available from Genentech, South San Francisco, Calif.). For example:” left out
as §2

Avastin®: known monoclonal antibody against vascular endothelial growth factor (VEGF), angiogenesis inhibitor available from Genentech
Vessel population ratio between large (approximately 147-161 μm) and middle (approximately 33-77 μm) size vessels (FIG. 3) ([1]; treated vs control animals): decreased
Vessel population ratio between small (approximately 21-35 μm) and middle (approximately 35-49 μm) size vessels (FIG. 2) ([1]; treated vs control animals): decreased
Percentage of middle diameter sized vessels in treated tumors vs untreated tumors (FIG. 1) ([1]; two treated mice vs one control mouse): higher percentage
Reduction in small diameter sized vessels in treated tumors vs untreated tumors (FIG. 1) ([1]; two treated mice vs one control mouse, bins 13.8 μm wide): 20%
Mean tumor volumes, treated vs control group at the end of the experiment [2]: did not differ significantly
